What was measured:
[1] = system: barnyardgrass; test: Test A pre-/postemergence herbicide test; type: in vivo, Echinochloa crus-galli
Summary of the method: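 Greenhouse pot test with pre- and postemergence application of surfactant-containing solvent formulations. Postemergence plants were 2–10 cm, one- to two-leaf stage. Response scored visually after ~10 days, 0 (no effect) to 100 (complete control).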

[2] = system: galium; test: Test A postemergence herbicide test; type: in vivo, Galium aparine
Summary of the method: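 Young potted plants in a loam–sand mix, one- to two-leaf stage and 2–10 cm tall, receive the test chemical postemergence and stay in a greenhouse for approximately 10 days. Injury is then judged by eye against untreated plants, scored 0 (none) to 100 (complete control).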

[3] = system: barnyardgrass; test: Test B flooded paddy test; type: in vivo, Echinochloa crus-galli; settings: 500 g ai/ha, Flood; scale of 0 to 100 where 0 is no effect and 100 is complete control
Summary of the method: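 2-leaf plants; flood 3 cm over soil; compound into paddy water; depth held. Greenhouse 13–15 d. Visual rating vs controls, 0 (no effect) to 100 (complete control); dash = not tested.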

[4] = system: foxtail, giant; test: Test C pre-/postemergence herbicide test; type: in vivo, Setaria faberii
Summary of the method: (§1)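 Greenhouse pots; formulation = non-phytotoxic solvent mix + surfactant. PRE onto seeds in loam:sand; POST at 1–4 leaves (2–18 cm) in peat moss/vermiculite medium. Read-out: visual % control vs untreated, day 13–15.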

[5] = system: soybean; test: Test C pre-/postemergence herbicide test; type: in vivo, Glycine max
Summary of the method: as §1

[6] = system: oilseed rape; test: Test C pre-/postemergence herbicide test; type: in vivo, Brassica napus
Summary of the method: as §1

[7] = system: waterhemp; test: Test C pre-/postemergence herbicide test; type: in vivo, Amaranthus rudis
Summary of the method: as §1

[8] = Postemergence, 125 g ai/ha, visual rating on 0 to 100 scale (0 no effect, 100 complete control), approx. 10 days
[9] = Postemergence, 500 g ai/ha, 0 to 100 scale (0 no effect, 100 complete control)
[10] = Preemergence, 125 g ai/ha, 0 to 100 scale where 0 is no effect and 100 is complete control
[11] = Preemergence, 500 g ai/ha, visual rating on 0 to 100 scale (0 no effect, 100 complete control)
[12] = 125 g ai/ha, visual rating on 0 to 100 scale (0 no effect, 100 complete control), approx. 10 days
[13] = 500 g ai/ha, 0 to 100 scale (0 no effect, 100 complete control)
[14] = Postemergence, 31 g ai/ha, scale 0 to 100 (0 no effect, 100 complete control)
[15] = Postemergence, 62 g ai/ha, scale 0 (no effect) to 100 (complete control)
[16] = Postemergence, 125 g ai/ha, scale 0 to 100 (0 no effect, 100 complete control)
[17] = Postemergence, 250 g ai/ha, scale 0 to 100 (0 no effect, 100 complete control)
[18] = Preemergence, 31 g ai/ha, scale 0 to 100, 0 is no effect and 100 is complete control
[19] = Preemergence, 62 g ai/ha, scale 0 to 100 (0 no effect, 100 complete control)
[20] = Preemergence, 125 g ai/ha, scale 0 to 100 (0 no effect, 100 complete control)
[21] = Preemergence, 125 g ai/ha, scale 0 to 100

SMILES	Plant response rating, Barnyardgrass [1, 8]	Plant response rating, Barnyardgrass [1, 9]	Plant response rating, Barnyardgrass [1, 10]	Barnyardgrass plant response rating [1, 11]	Plant response rating, Galium [2, 12]	Plant response rating, Galium [2, 13]	Plant response rating, Barnyardgrass [3]	Plant response rating, Foxtail, Giant [4, 14]	Plant response rating, Foxtail, Giant [4, 15]	Plant response rating, Foxtail, Giant [4, 16]	Plant response rating, Foxtail, Giant [4, 17]	Foxtail, Giant plant response rating [4, 18]	Foxtail, Giant plant response rating [4, 19]	Plant response rating (scale of 0 to 100), Foxtail, Giant ([4]; Preemergence, 250 g ai/ha)	Plant response rating, Soybean [5, 14]	Soybean plant response rating [5, 19]	Oilseed Rape plant response rating [6, 18]	Oilseed Rape plant response rating [6, 19]	Plant response rating (scale of 0 to 100), Oilseed Rape ([6]; Preemergence, 250 g ai/ha)	Waterhemp plant response rating [7, 19]	further results
CN1CC(c2cccc(C(F)(F)F)c2)C(C(=O)Nc2cccc(F)c2F)C1=O (stereo not drawn) [Compound 305]	80	90	80	90	50	70	75	0	65	85	90	95	95	95	10	0	20	60	90	65	Plant response rating, Foxtail, Giant [4, 20]: 95; Plant response rating, Soybean [5, 15]: 0; Plant response rating, Soybean [5, 16]: 0; Plant response rating, Soybean [5, 17]: 0; Soybean plant response rating [5, 18]: 0; Plant response rating, Soybean [5, 20]: 0; Plant response rating (scale of 0 to 100), Soybean ([5]; Preemergence, 250 g ai/ha): 0; Plant response rating, Oilseed Rape [6, 14]: 0; Plant response rating, Oilseed Rape [6, 15]: 0; Plant response rating, Oilseed Rape [6, 16]: 0; Plant response rating, Oilseed Rape [6, 17]: 0; Plant response rating, Oilseed Rape [6, 20]: 80; Plant response rating, Waterhemp [7, 14]: 10; Plant response rating, Waterhemp [7, 15]: 10; Plant response rating, Waterhemp [7, 16]: 35; Plant response rating, Waterhemp [7, 17]: 40; Waterhemp plant response rating [7, 18]: 40; Plant response rating, Waterhemp [7, 20]: 80; Plant response rating (scale of 0 to 100), Waterhemp ([7]; Preemergence, 250 g ai/ha): 80
CN1CC(c2ccc(C(F)(F)F)cc2)C(C(=O)Nc2cccc(F)c2F)C1=O (stereo not drawn) [Compound 306]	80	80	90	90	60	70	75	5	75	60	85	90	95	100	0	0	50	70	75	85	Plant response rating, Foxtail, Giant [4, 20]: 95; Plant response rating, Soybean [5, 15]: 5; Plant response rating, Soybean [5, 16]: 5; Plant response rating, Soybean [5, 17]: 5; Plant response rating, Soybean [5, 20]: 0; Plant response rating (scale of 0 to 100), Soybean ([5]; Preemergence, 250 g ai/ha): 0; Plant response rating, Oilseed Rape [6, 14]: 0; Plant response rating, Oilseed Rape [6, 15]: 50; Plant response rating, Oilseed Rape [6, 16]: 40; Plant response rating, Oilseed Rape [6, 17]: 70; Plant response rating, Oilseed Rape [6, 20]: 75; Plant response rating, Waterhemp [7, 14]: 65; Plant response rating, Waterhemp [7, 15]: 65; Plant response rating, Waterhemp [7, 16]: 80; Plant response rating, Waterhemp [7, 17]: 80; Plant response rating, Waterhemp [7, 20]: 85; Plant response rating (scale of 0 to 100), Waterhemp ([7]; Preemergence, 250 g ai/ha): 90
O=C1NCC(c2cccc(Br)c2)C1C(=O)Nc1ccc(F)c(F)c1F (stereo not drawn) [Compound 310]	90	90	90	90	20	20	60	0	5	30	70	80	85	90	10	0	0	5	85	0	Plant response rating, Foxtail, Giant [4, 21]: 90; Plant response rating, Soybean [5, 15]: 10; Plant response rating, Soybean [5, 16]: 0; Plant response rating, Soybean [5, 17]: 0; Plant response rating, Soybean [5, 21]: 0; Plant response rating (scale of 0 to 100), Soybean ([5]; Preemergence, 250 g ai/ha): 0; Plant response rating, Oilseed Rape [6, 14]: 0; Plant response rating, Oilseed Rape [6, 15]: 0; Plant response rating, Oilseed Rape [6, 16]: 0; Plant response rating, Oilseed Rape [6, 17]: 40; Plant response rating, Oilseed Rape [6, 21]: 40; Plant response rating, Waterhemp [7, 14]: 5; Plant response rating, Waterhemp [7, 15]: 10; Plant response rating, Waterhemp [7, 16]: 10; Plant response rating, Waterhemp [7, 17]: 10; Plant response rating, Waterhemp [7, 21]: 25; Plant response rating (scale of 0 to 100), Waterhemp ([7]; Preemergence, 250 g ai/ha): 25
CC(C)c1cccc(C2CNC(=O)C2C(=O)Nc2ccccc2F)c1 (stereo not drawn) [Compound 318]	90	90	90	90	30	40	75					10	70	90		0	0	0	5	30	Plant response rating, Foxtail, Giant [4, 21]: 75; Plant response rating, Soybean [5, 21]: 0; Plant response rating, Oilseed Rape [6, 21]: 5; Plant response rating, Waterhemp [7, 21]: 10
CC(C)c1cccc(C2CNC(=O)C2C(=O)Nc2cccc(F)c2F)c1 (stereo not drawn) [Compound 319]	90	90	90	90	30	50	70					70	85	95		0	0	5	65	35	Plant response rating, Foxtail, Giant [4, 21]: 95; Plant response rating, Soybean [5, 21]: 0; Plant response rating, Oilseed Rape [6, 21]: 60; Plant response rating, Waterhemp [7, 21]: 35
O=C1NCC(c2cccc(OC(F)F)c2)C1C(=O)Nc1ccccc1F (stereo not drawn) [Compound 323]	90	90	90	90	40	60	80	0	0	35	70	90	95	98	0	0	0	10	85	50	Plant response rating, Foxtail, Giant [4, 21]: 95; Plant response rating, Soybean [5, 15]: 0; Plant response rating, Soybean [5, 16]: 0; Plant response rating, Soybean [5, 17]: 0; Plant response rating, Soybean [5, 21]: 0; Plant response rating, Oilseed Rape [6, 14]: 0; Plant response rating, Oilseed Rape [6, 15]: 0; Plant response rating, Oilseed Rape [6, 16]: 0; Plant response rating, Oilseed Rape [6, 17]: 0; Plant response rating, Oilseed Rape [6, 21]: 70; Plant response rating, Waterhemp [7, 14]: 0; Plant response rating, Waterhemp [7, 15]: 0; Plant response rating, Waterhemp [7, 16]: 0; Plant response rating, Waterhemp [7, 17]: 20; Plant response rating, Waterhemp [7, 21]: 60

Reference: patent US10294202B2, “Pyrrolidinones as herbicides” (FMC Corporation, priority 2013, dated 2019)
